Here are results for 3 molecules from patent US20230390250A1, “MODULATION OF GLUCAGON-LIKE PEPTIDE 1 AND USES THEREOF” (priority 2020, published 2023).

Entries after “also recorded” stand apart in the source; their conditions may differ. Like-named read-outs stand apart in the source and are kept apart here.

One assay deals with GLUTag cells. Kind of assay: GLP-1 secretion from cultured GLUTag cells treated with LPA and/or LPAR antagonist. The format is cell-based, mouse. As for the experimental part: We have grown GLUTag cells in culture to test effects of various LPA species and the LPAR 1/2/3 inhibitor Ki-16425. GLUTag cells are a well characterized L-cell line derived from a mouse intestinal tumour, which have been widely used to study the regulation of GLP-1. Briefly, GLUTag cells were grown until 80-90% confluent. Complete medium, containing fetal bovine serum, was replaced with medium containing charcoal[…] dextran treated serum, which removes lipids and hormones that could interfere with testing. […] This indicates a direct inhibitory effect of LPA at physiologically relevant levels on GLP-1 secretion by L-cells, and the ability of a commercially available LPAR antagonist to prevent this.
Experimental Protocol. Briefly, GLUTag cells were grown until 70-80% confluent. Complete medium (low glucose DMEM), containing fetal bovine serum, was replaced with medium containing charcoal-dextran treated serum, which removes lipids and hormones that could interfere with testing. Cells were then treated with medium containing either DMSO as vehicle control (0.1% v/v), 2.5 μM LPA, 10 μM LPAR antagonist, or a combination of the LPA species and inhibitors. For cells treated with both LPA plus LPAR inhibitor: cells were pre-treated with LPA for 30 minutes and then 10 uM LPAR inhibitor was added to the respective wells for a further 2 hours. For cells treated with LPA only, or vehicle only, the total treatment time was 2.5 hours. For cells treated with antagonist only, the treatment time was 2 hours.

A further assay relates to GLP-1. Kind of assay: Circulating GLP-1 in mice injected with LPA, with or without LPAR antagonist pre-treatment. The settings on record: for rescue of the fall in blood GLP-1 levels caused by LPA: antagonist 30 mg/kg by gavage 10 min before 50 mg/kg 18:1-LPA i.p., serum at 30 min (Examples 6, 8); for blood GLP-1 with antagonist alone versus vehicles: antagonist 30 mg/kg by gavage, no LPA. The format is in vivo. As for the experimental part: We injected mice i.p. with vehicle (10% DMSO in isotonic saline) or 50 mg/kg of 1-oleoyl-2-hydroxy-LPA. Half of the mice injected with LPA were pre-injected with 5 mg/kg Ki-16425 10 minutes prior to receiving LPA. Thirty minutes later, samples of blood were taken by cardiac puncture, and circulating active GLP-1 levels in plasma were analysed by enzyme linked immunosorbent assay.
(§1) The experimental protocol was as follows: • 1. Mice were administered an LPAR antagonist drug, either by oral gavage (for BMS986020, SARI 00842, AM966, AM095, or H2L51863030), or by i.p. injection (for Ki-16425, and LPA2-antagonistl) at the doses indicated in the table below. • 2. Control mice were administered only the vehicle (a 10% DMSO solution) given via the same route as the comparison drug was administered. • 3. Ten minutes later, mice were injected i.p. either with isotonic saline, or with 50 mg/kg LPA. • 4. Thirty minutes later, mice were euthanized by cervical dyslocation, and blood was collected from the heart for preparation of serum that was stored at −80C until it was analyzed for total GLP-1 concentration by ELISA assay using a GLP-1 enzyme immunoassay kit.

In assay [1] the test system is DPP4. In words: DPP4 activity in GLUTag cells (fluorometric kit ab204722). Type of assay: cell-based, mouse. Conditions: for effect of 18:1-LPA combined with LPAR antagonist on DPP4 activity in GLUTag cells: 2.5 uM 18:1-LPA 30 minutes, then 10 uM antagonist 2 hours; for effect of LPAR antagonist alone on DPP4 activity in GLUTag cells: 10 uM antagonist, 2 hours. The method, then: Briefly, GLUTag cells were grown to produce the recommended quantity needed for the assay according to the manufacturer's protocol (ab204722 Dipeptidyl peptidase IV Activity Assay Kit (Fluorometric)), and then the wells were treated in media containing charcoal-stripped FBS (10%), with either nothing (no treatment control), or vehicle control (0.05% DMSO), or 2.5 uM 18:1-LPA for 30 minutes, and then the inhibitors (as indicated in the graph of FIG. 17) were added to the vehicle wells and the 2.5 uM 18:1-LPA wells at 10 uM concentrations, as indicated on the graph (FIG. 17), for an additional 2 hours. Cells were then harvested according to the manufacturer's protocol, and lysed using reagents from the kit. Charcoal-stripped FBS was used to remove lipids, including LPA, from serum. Experiments were also carried out wherein the FBS was not stripped with charcoal, and the results were not different.
According to the manufacturer, dipeptidyl peptidase IV (DPP4) Activity Assay Kit (Fluorometric) (ab204722) is an assay where DPP4 cleaves a substrate to release a quenched fluorescent group, AMC (7-Amino-4-Methyl Coumarin), which can be easily detected at Ex/Em=360/460 nm. This assay is rapid, simple, sensitive, and reliable, as well as, suitable for high throughput activity screening of DPP4. This kit detects DPP4 activity as low as 3 ρU per well.

Assay [2] addresses T1, LPAR3 (Homo sapiens, UniProt Q9UBY5).
T1 sequence (Q9UBY5 1-353): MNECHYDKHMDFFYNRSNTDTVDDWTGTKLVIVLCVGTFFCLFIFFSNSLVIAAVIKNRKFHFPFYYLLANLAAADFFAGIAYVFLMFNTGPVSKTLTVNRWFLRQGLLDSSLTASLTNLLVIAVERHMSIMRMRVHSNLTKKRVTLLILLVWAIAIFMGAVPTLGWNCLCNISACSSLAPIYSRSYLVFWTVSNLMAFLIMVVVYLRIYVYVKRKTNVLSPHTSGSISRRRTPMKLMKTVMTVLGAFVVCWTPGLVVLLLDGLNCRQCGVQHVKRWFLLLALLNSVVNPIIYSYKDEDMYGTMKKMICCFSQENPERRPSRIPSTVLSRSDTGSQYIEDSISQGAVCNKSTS
The settings on record: cited from earlier work.

In assay [3] the target is T2, LPAR2 (Homo sapiens, UniProt Q9HBW0). The settings on record: cited from earlier work.
In assay [4] the target is T1, LPAR3. Conditions: cited from earlier work. The source holds these as a separate data set.
In the next assay the target is T3, LPAR4 (Homo sapiens, UniProt Q99677).
T3 construct: host or cells: CHO cells
Conditions: cited from earlier work.

A further assay deals with T4, LPAR5 (Homo sapiens, UniProt Q9H1C0).
T4 construct: host or cells: CHO cells
Conditions: cited from earlier work.

The subject of assay [5] is DPP4. Kind of assay: DPP4 activity in serum of C57BI/6J mice. Type of assay: in vivo. Conditions: for effect of antagonist on DPP4 activity in mouse serum: 30 mg/kg by gavage; for effect of 18:1-LPA combined with antagonist on DPP4 activity in mouse serum: antagonist 30 mg/kg by gavage then 50 mg/kg 18:1-LPA.
For assay [6], the target named is T5, LPAR1 (Homo sapiens, UniProt Q92633). More on the design: expressed in transfected cells; host or cells: CHO cells. The settings on record: cited from earlier work; for IC50: LPA-induced calcium response, CHO cells with LPAR1.
Target sequence in this assay (Q92633 whole entry): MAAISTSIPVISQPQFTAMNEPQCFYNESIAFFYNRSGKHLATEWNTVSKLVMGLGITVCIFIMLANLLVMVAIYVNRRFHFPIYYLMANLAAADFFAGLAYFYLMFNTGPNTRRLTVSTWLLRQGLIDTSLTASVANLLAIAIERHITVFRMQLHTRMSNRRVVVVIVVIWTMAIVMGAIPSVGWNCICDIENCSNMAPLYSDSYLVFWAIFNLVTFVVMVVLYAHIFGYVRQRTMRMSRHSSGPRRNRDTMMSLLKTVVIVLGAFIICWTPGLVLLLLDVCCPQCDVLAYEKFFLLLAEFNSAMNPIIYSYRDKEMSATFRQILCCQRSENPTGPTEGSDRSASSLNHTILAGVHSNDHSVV
The target of assay [7] is T5, LPAR1. Conditions: in cells; read-out: IC50 in cells for LPAR1; cited from earlier work.
Target sequence in this assay (Q92633 whole entry, species assumed): as the sequence (Q92633 whole entry) above
Assay [8] has as its target T2, LPAR2. Conditions: cited from earlier work. The source holds these as a separate data set.
Assay [9] deals with DPP4. Kind of assay: DPP4 activity in serum of C57BI/6J mice. The format is in vivo. The settings on record: 50 mg/kg 18:1-LPA i.p., serum 30 minutes later. The method, then: Mice were injected with 5 mg/kg Ki16425 or control (10% DMSO in isotonic saline), then injected 10 mins later with 50 mg/kg 1-18:1-LPA or saline (vehicle control), then euthanized 30 minutes later for serum collection and analysis.
as §1, with “(for” for “(for BMS986020,”, “00842” for “00842, AM966, AM095,”, “AM966),” for “H2L51863030),”, “Ki-16425)” for “Ki-16425, and LPA2-antagonistl)”, “18:1-LPA.” for “LPA.”

The subject of another assay is insulin secretion. The settings on record: prior study, Rancoule et al. 2013; cited from earlier work.

T2 sequence (Q9HBW0 whole entry, species assumed): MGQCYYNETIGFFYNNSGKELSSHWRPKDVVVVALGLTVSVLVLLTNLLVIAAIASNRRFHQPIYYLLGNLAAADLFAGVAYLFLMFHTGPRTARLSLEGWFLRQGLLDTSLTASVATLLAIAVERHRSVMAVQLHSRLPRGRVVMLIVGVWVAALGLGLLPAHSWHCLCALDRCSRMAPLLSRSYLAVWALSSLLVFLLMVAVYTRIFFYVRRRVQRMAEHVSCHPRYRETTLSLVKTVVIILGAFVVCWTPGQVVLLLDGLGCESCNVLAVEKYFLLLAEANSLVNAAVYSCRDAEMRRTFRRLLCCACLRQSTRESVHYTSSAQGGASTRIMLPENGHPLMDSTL
T4 sequence (Q9H1C0 whole entry, species assumed): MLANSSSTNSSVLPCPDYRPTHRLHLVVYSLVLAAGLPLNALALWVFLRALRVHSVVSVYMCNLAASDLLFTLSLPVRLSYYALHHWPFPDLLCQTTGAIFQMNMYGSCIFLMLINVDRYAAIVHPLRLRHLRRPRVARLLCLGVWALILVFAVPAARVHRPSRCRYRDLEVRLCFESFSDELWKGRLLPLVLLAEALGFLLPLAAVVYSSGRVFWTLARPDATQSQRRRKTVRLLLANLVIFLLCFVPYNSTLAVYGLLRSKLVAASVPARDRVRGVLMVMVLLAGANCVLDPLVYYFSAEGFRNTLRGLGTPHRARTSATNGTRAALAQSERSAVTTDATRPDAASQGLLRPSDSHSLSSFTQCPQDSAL
T3 sequence (Q99677 whole entry, species assumed): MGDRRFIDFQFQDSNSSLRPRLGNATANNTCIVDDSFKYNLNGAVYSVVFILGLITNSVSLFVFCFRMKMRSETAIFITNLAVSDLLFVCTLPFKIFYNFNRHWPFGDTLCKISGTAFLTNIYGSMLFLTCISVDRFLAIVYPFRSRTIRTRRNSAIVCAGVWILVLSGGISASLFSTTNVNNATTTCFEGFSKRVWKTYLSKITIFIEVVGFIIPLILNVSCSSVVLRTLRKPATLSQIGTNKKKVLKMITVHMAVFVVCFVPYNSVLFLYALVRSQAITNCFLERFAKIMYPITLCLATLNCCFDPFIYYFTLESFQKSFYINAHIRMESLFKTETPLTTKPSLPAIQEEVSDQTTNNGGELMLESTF

Regarding `Cc1noc(-c2ccc(-c3ccc(CC(=O)O)cc3)cc2)c1NC(=O)O[C@H](C)c1ccccc1Cl` [AM966], the “effect of LPAR antagonist alone on GLP-1 levels” value in the assay on GLUTag cells (10 μM antagonist alone, 2 h) was “no significant effect”. In the assay with GLUTag cells (10 μM antagonist plus 2.5 μM LPA), the “rescue of LPA-inhibited GLP-1 secretion by LPAR antagonist” value is “complete rescue”. Besides, the “rescue of the fall in blood GLP-1 levels caused by LPA” value with GLP-1 is recorded as “completely abrogated; also recorded: Complete rescues; also recorded: restored to normal levels”. The “blood GLP-1 with antagonist alone versus vehicles” value in the assay on GLP-1 was “indistinguishable from mice treated only with the vehicles”. Also, in the assay on DPP4 [1], the “effect of 18:1-LPA combined with LPAR antagonist on DPP4 activity in GLUTag cells” value is “did not significantly affect”. For the same molecule, the “effect of LPAR antagonist alone on DPP4 activity in GLUTag cells” value in the assay with DPP4 [1] is “did not significantly affect”. In addition, the “level at which LPAR3 is antagonized” value at LPAR3 [2] is reported as “low micromolar levels”. Moreover, the IC50 (as a rule, the concentration at which inhibition is half-maximal) at LPAR2 [3] (calcium assay, CHO cells, read-out: IC50, LPAR2) is 1700 nM; at LPAR2 [3] (read-out: IC50, LPAR2, calcium release in CHO cells), 1700 nM; at LPAR3 [4] (calcium assay, CHO cells, read-out: IC50, LPAR3), 1600 nM; on LPAR3 [4] (read-out: IC50, LPAR3, calcium release in CHO cells), 1600 nM; at LPAR4 (calcium assay, CHO cells, read-out: IC50, LPAR4), 7700 nM; on LPAR4 (read-out: IC50, LPAR4, calcium release in CHO cells) it was 7700 nM. In addition, the half-inhibitory concentration (IC50) is 8600 nM on LPAR5 (calcium assay, CHO cells, read-out: IC50, LPAR5); 8600 nM on LPAR5 (read-out: IC50, LPAR5, calcium release in CHO cells); 17 nM on LPAR1 [6]. Further, the “effect of antagonist on DPP4 activity in mouse serum” value with DPP4 [5] is given as “did not significantly affect; also recorded: lack of effect; also recorded: not significantly affected”. For the same molecule, the “effect of 18:1-LPA combined with antagonist on DPP4 activity in mouse serum” value in the assay with DPP4 [5] is “did not affect”. For the same molecule, the “fold lower affinity for LPAR2, LPAR3 (than LPAR1)” value on LPAR1 [6] (selectivity) was around 10 fold.
Take `COc1ccc(C(=O)NC2(C(=O)O)Cc3ccccc3C2)cc1OCCc1cccc(C)c1` [SAR100842]: in the assay with GLP-1, the “rescue of the fall in blood GLP-1 levels caused by LPA” value is “completely abrogated; also recorded: Complete rescues; also recorded: restored to normal levels” and the “blood GLP-1 with antagonist alone versus vehicles” value is recorded as “indistinguishable from mice treated only with the vehicles”. In the assay with DPP4 [1], the “effect of 18:1-LPA combined with LPAR antagonist on DPP4 activity in GLUTag cells” value is “did not significantly affect” and the “effect of LPAR antagonist alone on DPP4 activity in GLUTag cells” value is “did not significantly affect”. The IC50 on LPAR1 [7] is around 100 nM. Further, the “concentration up to which no activity with LPAR2” value on LPAR2 [8] (no activity up to) was > 10,000 nM. For the same molecule, the concentration up to which no reported activity on LPAR2 on LPAR2 [8] (no reported activity up to) is above 10 µM. For the same molecule, the “concentration up to which no activity with LPAR3” value at LPAR3 [2] (no activity up to) is given as > 10,000 nM. The concentration up to which no reported activity on LPAR3 on LPAR3 [2] (no reported activity up to) was above 10 µM. Besides, in the assay with DPP4 [5], the “effect of antagonist on DPP4 activity in mouse serum” value was “did not significantly affect; also recorded: lack of effect; also recorded: not significantly affected” and the “effect of 18:1-LPA combined with antagonist on DPP4 activity in mouse serum” value is “did not affect”. Besides, the IC50 at LPAR1 [6] is 59 to 262 nM.
Take lysophosphatidic acid [LPA]: the “effect of LPA on circulating GLP-1 levels (words)” value with GLP-1 (50 mg/kg i.p., mice) is on record as “suppressed”. Besides, in the assay on GLP-1 (vehicle (10% DMSO)-treated mice, 50 mg/kg 18:1-LPA i.p., 30 min, serum (Example 6)), the “fall in serum GLP-1 levels after LPA injection” value is above 50%. Also, in the assay on DPP4 [9], the “effect of LPA on DPP4 activity in mouse serum” value was “lack of effect; also recorded: not significantly affected”. Further, the “insulin secretion in mice injected with LPA” value in the assay with insulin secretion was “impaired”.
